Measured values taken from patent US12109176B1, “Effect of glycerol on biofilm forming bacteria and fungi that changes the microbes sensitivity to pro and anti-biofilm non-toxic, non-bonded plasma amino acids and amino acid derivatives” (priority 2023, dated 2024).

Experiments:
[1] = system: bacterial (S. aureus) biofilm and fungal biofilm (C. albicans); test: Biofilm inhibition assay, bacterial and fungal taken together; assay type: cell-based; conditions: symbol marks the assay
Experimental: (§1) Two types of biofilm assays were performed: an inhibition assay and a disruption assay. The inhibition assay assesses the compound's ability to prevent biofilm development, while the disruption assay assesses the compound's ability to break up an existing mature biofilm.
(§2) All bacterial biofilm solutions were prepared in Tryptic Soy Broth (TSB), supplemented with 1% glucose (henceforth referred to as TSB-G). All subsequent procedures were performed in a manner that maintained sterility. A solution of each amino acid or an amino acid derivative to be tested was prepared in weight to volume concentrations ranging from 0.1-5.0%. Amino acids and amino acid derivatives were also tested in combinations. Compound solutions were homogenized with gentle agitation in the dark (4° C., 24 hours) before use.
(§3) 32 Amino acids and 2 amino acid derivatives of the amino acid serine that occur freely in human blood were tested. […] 31 of the 32 amino acids that were tested were the L-Isomers. Glycine has no stereoisomers. The 2 amino acid derivatives, ethanolamine and phosphoethanolamine were also tested. All biofilm assays were performed using 384-well non-tissue culture-treated polystyrene plates. The fungal species tested are as follows: Candida albicans, Candida guilliermondii, Candida parapsilosis, Candida glabrata, Candida tropicalis and Candida dubliniensis. The bacterial species tested are as follows: Staphylococci (standard wild type and methicillin-resistant strain USA300), Escherichia coli, Pseudomonas aeruginosa and Staphylococcus epidermidis.
Fungal strains were streaked on Yeast Peptone Dextrose (YPD) agar plates and incubated at 30° C. for 48 hours. A single colony from each strain to be tested was inoculated into YPD broth and grown for 12 hours at 30° C., shaking at 225 rpm. […] The cells were allowed to adhere to the plate for 90 minutes at 37° C. with shaking (350 rpm). […] The plate was further incubated for 24 hours at 37° C. with shaking (350 rpm). Media was carefully aspirated and the biofilm was measured by optical density at 600 nm. […] The cells were allowed to adhere to the plate for 90 minutes at 37° C. with shaking (350 rpm). […] The plate was further incubated for 24 hours at 37° C. with shaking (350 rpm). […] The plate was further incubated for 24 hours at 37° C. with shaking (350 rpm). Media was carefully aspirated, and the biofilm was measured by optical density at 600 nm.
Bacterial strains were streaked on Blood Agar plates (5% sheep blood in Tryptic Soy Broth) and incubated at 37° C. for 24 hours. A single colony from each strain to be tested was inoculated in a TSB broth and grown for 12 hours, at 37° C. with shaking (225 rpm). For the bacterial biofilm inhibition assays, 1 μL of saturated overnight cell culture was added to either 80 μL of TSB-G, or TSB-G supplemented with the amino acid compound solution to be tested, in a 384-well plate. The cells were allowed to adhere to the plate for 60 minutes at 37° C. without shaking. The media was carefully aspirated and 80 μL of TSB-G, or TSB-G supplemented with the amino acid compound solution was added to the plate. The plate was further incubated for 24 hours at 37° C. without shaking. Media was carefully aspirated and the biofilm was measured by optical density at 600 nm. Eight or twelve replicates were performed for each tested condition and the reported values are normalized to the control (TSB-G media only). For the bacterial biofilm disruption assays, 80 µL of TSB-G was added to the plate, along with 1 μL of overnight cell culture. The cells were allowed to adhere to the plate for 60 minutes at 37° C. with no shaking. The media was carefully aspirated and 80 μL of TSB-G was added to the plate. The plate was further incubated for 24 hours at 37° C. with no shaking. Media was carefully aspirated from the mature biofilm and 80 μL of TSB-G, or TSB-G supplemented with the amino acid to be tested, was gently added to the plate.

[2] = system: bacterial (S. aureus) biofilm; test: Bacterial biofilm inhibition assay; assay type: cell-based, Staphylococcus aureus
Experimental: as §1, §2, §3
(§4) Bacterial strains were streaked on Blood Agar plates (5% sheep blood in Tryptic Soy Broth) and incubated at 37° C. for 24 hours. A single colony from each strain to be tested was inoculated in a TSB broth and grown for 12 hours, at 37° C. with shaking (225 rpm). For the bacterial biofilm inhibition assays, 1 μL of saturated overnight cell culture was added to either 80 μL of TSB-G, or TSB-G supplemented with the amino acid compound solution to be tested, in a 384-well plate. The cells were allowed to adhere to the plate for 60 minutes at 37° C. without shaking. The media was carefully aspirated and 80 μL of TSB-G, or TSB-G supplemented with the amino acid compound solution was added to the plate. The plate was further incubated for 24 hours at 37° C. without shaking. Media was carefully aspirated and the biofilm was measured by optical density at 600 nm. Eight or twelve replicates were performed for each tested condition and the reported values are normalized to the control (TSB-G media only). For the bacterial biofilm disruption assays, 80 µL of TSB-G was added to the plate, along with 1 μL of overnight cell culture. The cells were allowed to adhere to the plate for 60 minutes at 37° C. with no shaking. The media was carefully aspirated and 80 μL of TSB-G was added to the plate. The plate was further incubated for 24 hours at 37° C. with no shaking. Media was carefully aspirated from the mature biofilm and 80 μL of TSB-G, or TSB-G supplemented with the amino acid to be tested, was gently added to the plate. The plate was further incubated for 24 hours at 37° C. without shaking. Media was aspirated and the biofilm was measured by optical density at 600 nm. Twelve replicates were performed for each tested condition and the reported values are normalized to the control (TSB-G media only).

bacterial biofilm = test: In vitro testing on bacterial biofilm (inhibition and/or disruption); assay type: cell-based; conditions: in vitro testing
Experimental: as §1, §2, §3, §4

[3] = Table D, Neutral = no effect on the biofilm
[4] = Table E, in the absence of an infusion of glycerol
[5] = Table F, in the presence of a sufficient concentration of glycerol

SMILES | Neutral (square: Inhibition Biofilm Assay) [1, 3] | Neutral (square: Inhibition Biofilm Assay) [1, 4] | Neutral (square: Inhibition Biofilm Assay) [1, 5] | Promote B Biofilm (squares: Inhibition Biofilm Assay) ([2]; Table D, 0.1 to 5.0%) | Promote B Biofilm (squares: Inhibition Biofilm Assay) [2, 4] | effect on bacterial biofilm (in words) (bacterial biofilm) | Reduce or Inhibit B Biofilm (squares: Inhibition Biofilm Assay) ([2]; Table D, 0.1 to 5.0%) | Reduce or Inhibit B Biofilm (squares: Inhibition Biofilm Assay) [2, 5]
Cn1cnc(C[C@H](N)C(=O)O)c1 [1-Methylhistidine, 1-methyl-L-histidine] | ▪ (Single square [ie. ▪] signifies little effect on the Inhibition Biofilm Assay (from about 10 to less than 30%)) | ▪ (Single square [ie. ▪] signifies little effect on the Inhibition Biofilm Assay (from about 10 to less than 30%)) | ▪ (Single square [ie. ▪] signifies little effect on the Inhibition Biofilm Assay (from about 10 to less than 30%)) | – | – | – | – | –
CCC(N)C(=O)O (stereo not shown) [2 Aminobutyric Acid, 2-aminobutyric acid] | ▪ (Single square [ie. ▪] signifies little effect on the Inhibition Biofilm Assay (from about 10 to less than 30%)) | ▪ (Single square [ie. ▪] signifies little effect on the Inhibition Biofilm Assay (from about 10 to less than 30%)) | ▪ (Single square [ie. ▪] signifies little effect on the Inhibition Biofilm Assay (from about 10 to less than 30%)) | – | – | – | – | –
N=C(N)NCCC[C@H](N)C(=O)O [Arginine, L-arginine] | – | – | – | ▪ (Single square [ie. ▪] signifies little effect on the Inhibition Biofilm Assay (from about 10 to less than 30%)) | ▪ (Single square [ie. ▪] signifies little effect on the Inhibition Biofilm Assay (from about 10 to less than 30%)) | promoted bacterial biofilm formation | – | –
NC(=O)C[C@H](N)C(=O)O [Asparagine, L-asparagine] | – | – | – | ▪ (Single square [ie. ▪] signifies little effect on the Inhibition Biofilm Assay (from about 10 to less than 30%)) | ▪ (Single square [ie. ▪] signifies little effect on the Inhibition Biofilm Assay (from about 10 to less than 30%)) | promoted bacterial biofilm formation | – | –
NCCC(=O)O [Beta-Alanine, Beta-alanine] | – | – | – | – | – | antibacterial biofilm effect | ▪ (Single square [ie. ▪] signifies little effect on the Inhibition Biofilm Assay (from about 10 to less than 30%)) | ▪ (Single square [ie. ▪] signifies little effect on the Inhibition Biofilm Assay (from about 10 to less than 30%))
NC(=O)NCCC[C@H](N)C(=O)O [Citrulline, L-citrulline] | – | – | – | ▪ (Single square [ie. ▪] signifies little effect on the Inhibition Biofilm Assay (from about 10 to less than 30%)) | ▪ (Single square [ie. ▪] signifies little effect on the Inhibition Biofilm Assay (from about 10 to less than 30%)) | promoted bacterial biofilm formation | – | –
NCC(=O)O [Glycine, L-glycine] | – | – | – | ▪ (Single square [ie. ▪] signifies little effect on the Inhibition Biofilm Assay (from about 10 to less than 30%)) | ▪ (Single square [ie. ▪] signifies little effect on the Inhibition Biofilm Assay (from about 10 to less than 30%)) | promoted bacterial biofilm formation | – | –
CC[C@H](C)[C@H](N)C(=O)O [Isoleucine, L-isoleucine] | – | – | – | ▪ (Single square [ie. ▪] signifies little effect on the Inhibition Biofilm Assay (from about 10 to less than 30%)) | ▪ (Single square [ie. ▪] signifies little effect on the Inhibition Biofilm Assay (from about 10 to less than 30%)) | promoted bacterial biofilm formation | – | –
CC(C)C[C@H](N)C(=O)O [Leucine, L-leucine] | – | – | – | ▪ (Single square [ie. ▪] signifies little effect on the Inhibition Biofilm Assay (from about 10 to less than 30%)) | ▪ (Single square [ie. ▪] signifies little effect on the Inhibition Biofilm Assay (from about 10 to less than 30%)) | promoted bacterial biofilm formation | – | –
NCCCC[C@H](N)C(=O)O [Lysine, L-lysine] | – | – | – | ▪ (Single square [ie. ▪] signifies little effect on the Inhibition Biofilm Assay (from about 10 to less than 30%)) | ▪ (Single square [ie. ▪] signifies little effect on the Inhibition Biofilm Assay (from about 10 to less than 30%)) | promoted bacterial biofilm formation | – | –
CSCC[C@H](N)C(=O)O [Methionine, L-methionine] | – | – | – | ▪ (Single square [ie. ▪] signifies little effect on the Inhibition Biofilm Assay (from about 10 to less than 30%)) | ▪ (Single square [ie. ▪] signifies little effect on the Inhibition Biofilm Assay (from about 10 to less than 30%)) | promoted bacterial biofilm formation | – | –
NCCC[C@H](N)C(=O)O [Ornithine, L-ornithine] | ▪ (Single square [ie. ▪] signifies little effect on the Inhibition Biofilm Assay (from about 10 to less than 30%)) | ▪ (Single square [ie. ▪] signifies little effect on the Inhibition Biofilm Assay (from about 10 to less than 30%)) | ▪ (Single square [ie. ▪] signifies little effect on the Inhibition Biofilm Assay (from about 10 to less than 30%)) | – | – | promoted bacterial biofilm formation | – | –
O=C(O)[C@@H]1CCCN1 [Proline, L-proline] | ▪ (Single square [ie. ▪] signifies little effect on the Inhibition Biofilm Assay (from about 10 to less than 30%)) | ▪ (Single square [ie. ▪] signifies little effect on the Inhibition Biofilm Assay (from about 10 to less than 30%)) | ▪ (Single square [ie. ▪] signifies little effect on the Inhibition Biofilm Assay (from about 10 to less than 30%)) | – | – | promoted bacterial biofilm formation | – | –
NCCS(=O)(=O)O [Taurine, L-taurine] | – | – | – | – | – | promoted bacterial biofilm formation | – | –
C[C@@H](O)[C@H](N)C(=O)O [Threnonine, L-threonine] | – | – | – | – | – | promoted bacterial biofilm formation | – | –
